Test results taken from PubChem BioAssay (NCI).
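Tested at 5 concentrations; 48 h exposure; 96-well plates; endpoints linearly interpolated, else capped at highest concentration. GI50 is the concentration that inhibits growth by half. Definition used: TGI = concentration required for complete inhibition of growth.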

Tests used:
Assay in all cases: DTP human tumour cell line panel, 48 h
OVCAR-4 ovarian = tested on: OVCAR-4 ovarian
K-562 leukemia = tested on: K-562 leukemia
MALME-3M melanoma = tested on: MALME-3M melanoma
RPMI-8226 leukemia = tested on: RPMI-8226 leukemia
UACC-62 melanoma = tested on: UACC-62 melanoma
RXF 393 renal = tested on: RXF 393 renal
DU-145 prostate = tested on: DU-145 prostate
SF-268 CNS = tested on: SF-268 CNS
HCT-15 colon = tested on: HCT-15 colon
LOX IMVI melanoma = tested on: LOX IMVI melanoma

| Compound | GI50 (OVCAR-4 ovarian) | TGI (OVCAR-4 ovarian) | GI50 (K-562 leukemia) | TGI (K-562 leukemia) | GI50 (MALME-3M melanoma) | TGI (MALME-3M melanoma) | GI50 (RPMI-8226 leukemia) | TGI (RPMI-8226 leukemia) | GI50 (UACC-62 melanoma) | TGI (UACC-62 melanoma) | GI50 (RXF 393 renal) | TGI (RXF 393 renal) | GI50 (DU-145 prostate) | TGI (DU-145 prostate) | GI50 (SF-268 CNS) | TGI (SF-268 CNS) | GI50 (HCT-15 colon) | TGI (HCT-15 colon) | GI50 (LOX IMVI melanoma) | TGI (LOX IMVI melanoma) |
| --- | --- | --- | --- | --- | --- | --- | --- | --- | --- | --- | --- | --- | --- | --- | --- | --- | --- | --- | --- | --- |
| Cc1cc(I)cc(CNCCN(C)C)c1O | > 93.1 µM | > 100 µM | > 76.1 µM | > 100 µM | > 87.8 µM | > 100 µM | 35.2 µM | > 100 µM | 19.7 µM | 39.2 µM | 30.6 µM | > 100 µM | 98.8 µM | > 100 µM | 65.9 µM | > 100 µM | 43.8 µM | > 100 µM | 44.3 µM | > 100 µM |
| Nc1ccc(/C=C/c2ccc3ncccc3c2)cc1 | > 100 µM | > 100 µM | > 100 µM | > 100 µM | > 100 µM | > 100 µM | 6.89 µM | > 100 µM | > 100 µM | > 100 µM | 73.2 µM | > 100 µM | > 100 µM | > 100 µM | > 100 µM | > 100 µM | > 100 µM | > 100 µM | 75 µM | > 100 µM |
| Sc1cccc2cccnc12 | 0.445 µM | 12.7 µM | 0.385 µM | > 52 µM | 1.06 µM | 14 µM | 2.9 µM | 30.3 µM | 0.529 µM | 7.25 µM | 1.4 µM | 8.28 µM | 0.626 µM | 15.9 µM | 1.35 µM | 13.5 µM | 0.427 µM | 14.4 µM | 0.57 µM | 11.1 µM |
| O=[N+]([O-])c1ccc(C2=NCCO2)cc1 | > 100 µM | > 100 µM | > 100 µM | > 100 µM | > 100 µM | > 100 µM | > 100 µM | > 100 µM | > 100 µM | > 100 µM | > 100 µM | > 100 µM | > 100 µM | > 100 µM | > 100 µM | > 100 µM | > 100 µM | > 100 µM | > 100 µM | > 100 µM |
| Cn1cc(C2=C(c3ccsc3)C(=O)NC2=O)c2ccccc21 | > 25 µM | > 25 µM | > 25 µM | > 25 µM | > 25 µM | > 25 µM | > 25 µM | > 25 µM | > 25 µM | > 25 µM | 24.4 µM | > 25 µM | > 25 µM | > 25 µM | > 25 µM | > 25 µM | > 22.7 µM | > 25 µM | > 25 µM | > 25 µM |
| O=C1NN2CC(c3ccccc3)=NN=C2c2ccccc21 | 61 µM | > 100 µM | 28.2 µM | > 100 µM | 32.1 µM | 87.6 µM | 19.4 µM | 41.7 µM | 22.6 µM | 49.5 µM | 23 µM | 48.4 µM | 31.3 µM | 99 µM | 26.8 µM | 82.3 µM | 24.4 µM | 86.3 µM | 22.6 µM | 47 µM |
| C=C(CO)C(=O)OC1CC(=C)C2CC(O)C(C)C2C2OC(=O)C(=C)C12 (centres undefined) |  | > 100 µM |  | 82.2 µM |  | 41.7 µM |  | 58.1 µM |  | 35.3 µM |  | 36.4 µM |  | > 100 µM |  | 39.4 µM |  | 35 µM |  | > 100 µM |
| CN1CCN(Cc2ccc(NC(=O)c3cncc(C#Cc4cnc(N)c5ncccc45)c3)cc2C(F)(F)F)CC1 | 0.1 µM | 1.29 µM |  | 1.92 µM | 0.131 µM | 0.607 µM | 0.401 µM | 8.2 µM | 0.341 µM | 1.93 µM | 0.26 µM | 1.09 µM | 0.37 µM | 7.33 µM | 0.511 µM | 2.95 µM | 0.314 µM | 12.7 µM | 0.216 µM | 1.33 µM |
| ClC1=C(Cl)C(Cl)(C2(Cl)C(Cl)=C(Cl)C(Cl)=C2Cl)C(Cl)=C1Cl | 0.2 µM | 0.509 µM | 0.226 µM | > 100 µM | 0.188 µM | 0.446 µM | 0.252 µM | 0.696 µM | 0.43 µM | 1.61 µM | 0.186 µM | 0.396 µM | 0.633 µM | 1.99 µM | 1.28 µM | 4.05 µM | 0.214 µM | 0.552 µM | 0.206 µM | 0.487 µM |
